Reference: patent US20190337924A1, “SUBSTITUTED HYDANTOIN AND THIOHYDANTOIN DERIVATIVES AS ANDROGEN RECEPTOR ANTAGONISTS” (Janssen Pharmaceutica NV, priority 2016, published 2019)
Structures can show the parent of a compound that is named as a salt. Where two headings read alike, the source gives them in different places.

How the values were obtained:
[1] = target: T1, F876L mutant Androgen Receptor (AR-F876L) (Homo sapiens, UniProt P10275, F877L); assay: AR reporter assay, LNCaP-AR-F876L ANT (antagonist mode); type: cell-based; conditions: for Emax: read-out: LNCaP-AR-F876L ANT MAX % Inh
T1 construct: expressed in transfected cells; host or cells: LNCaP
T1 sequence (P10275 1-920 F877L): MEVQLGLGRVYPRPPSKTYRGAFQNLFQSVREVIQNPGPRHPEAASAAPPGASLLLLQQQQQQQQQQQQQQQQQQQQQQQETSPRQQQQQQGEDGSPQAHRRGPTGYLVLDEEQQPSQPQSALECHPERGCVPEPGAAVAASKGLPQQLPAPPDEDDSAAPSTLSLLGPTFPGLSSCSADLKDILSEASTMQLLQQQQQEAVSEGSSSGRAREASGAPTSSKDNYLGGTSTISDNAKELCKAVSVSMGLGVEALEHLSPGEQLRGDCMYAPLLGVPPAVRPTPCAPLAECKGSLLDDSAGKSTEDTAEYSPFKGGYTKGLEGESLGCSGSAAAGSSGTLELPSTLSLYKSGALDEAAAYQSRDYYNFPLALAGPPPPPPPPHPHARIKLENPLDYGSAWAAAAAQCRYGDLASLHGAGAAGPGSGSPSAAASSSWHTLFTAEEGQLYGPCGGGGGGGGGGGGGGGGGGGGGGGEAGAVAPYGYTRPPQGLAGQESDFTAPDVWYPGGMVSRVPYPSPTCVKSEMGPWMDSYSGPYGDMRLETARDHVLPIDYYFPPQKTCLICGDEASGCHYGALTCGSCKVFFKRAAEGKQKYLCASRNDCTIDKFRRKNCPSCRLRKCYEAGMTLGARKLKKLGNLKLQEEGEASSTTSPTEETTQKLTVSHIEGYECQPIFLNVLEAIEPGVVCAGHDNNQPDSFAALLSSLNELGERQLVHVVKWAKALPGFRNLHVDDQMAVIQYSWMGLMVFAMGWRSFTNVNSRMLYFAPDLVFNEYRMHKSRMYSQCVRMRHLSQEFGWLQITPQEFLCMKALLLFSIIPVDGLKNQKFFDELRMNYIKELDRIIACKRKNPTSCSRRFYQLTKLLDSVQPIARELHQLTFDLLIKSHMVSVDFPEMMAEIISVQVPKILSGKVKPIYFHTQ
Description: (§1) LNCaP AR (cs) and LNCaP F876L luciferase cell lines were generated by transduction of each cell line (description of cell line generation Joseph J D, Lu N, Qian J, Sensintaffar J, Shao G, Brigham D, Moon M, Maneval E C, Chen I, Darimont B, Hager J H. A clinically relevant androgen receptor mutation confers resistance to second-generation antiandrogens enzalutamide and ARN-509. Cancer Discov 2013; 3:1020-1029) with an Androgen Response Element Firefly Luciferase lentiviral construct at an MOI (multiplicity of infection) of 50 following the manufacturer's instructions (Qiagen). A stable pooled-population cell line was generated using puromycin (Life Technologies) selection at 1:10,000 v/v. The protocol below was used for both cell lines and for testing of the compounds of Formula (I) of the present invention.
(§2) LNCaP cells were grown to about 80% confluence, media removed and cells rinsed in Hank's balanced salt solution prior to separation from the plate with 0.05% Trypsin EDTA. Cells were lifted and trypsin negated in complete CSS (charcoal stripped serum) culture media. CSS was maintained on cells for 24 h prior to assay, at which time 5,000 cells/[…] were seeded in Greiner 384 well White/White Tissue Culture Treated Plates and incubated for a further 1-2 hours at 37° C., 5% CO2, prior to addition of 10 μL of 4× Test Compounds (compounds described herein) or Assay Controls (all diluted in complete media containing 10% css). A further 10 μL of 4× R-1881 Agonist Challenge (antagonist assay) or Buffer (agonist assay) was then added (all diluted in complete media containing 10% css). Agonist challenge was at 400 pM for WT assay and 600 pM for F876L assay. Plates containing cells and compounds herein were incubated for a further 20-24 hours at 37° C., 5% CO2 before addition of 40 μL/well of Steady-Glo Luciferase Assay System Reagent (Promega#E2520). After 1 h, plates were read for luminescence on a BMG Pherastar.
Agonist challenge: R-1881 (Metribolone)—Agonist
Antagonist control (low control): 5-(5-(4-((1-Methylpiperidin-4-yl)oxy)phenyl)-8-oxo-6-thioxo-5,7-diazaspiro[3.4]octan-7-yl)-3-(trifluoromethyl)picolinonitrile (WO 2011/103202, EXAMPLE 19, Compound 129, CAS #1332390-06-3).
(1−(Sample RLU−Ave Low Control RLU[10 μM Antagonist Control])/(Ave High Control RLU [400 pM R-1881]−Ave Low Control RLU[10 μM Antagonist Control]))*100.
(§3) EC/IC50 calculations were achieved utilizing calculated RLU data and data fitting macros. Data were fit using least-squares methods to the following formula: […]
(§4) As used herein: • pIC50 is defined as −Log10(IC50 expressed in [Molar]). • pEC50 is defined as −Log10(EC50 expressed in [Molar]). • MAX % Inh is defined as the maximum % inhibition of R1881 control response observed for a compound over the tested concentration range. • MAX % Stim is defined as the maximum % stimulation (agonist response) observed for a compound over the tested concentration range. • LNCaP-AR-wt ANT refers to the reporter assay using LNCaP cells stably transfected with the Androgen Response Element Firefly Luciferase lentiviral construct and wild-type Androgen Receptor (AR-wt) in Antagonist mode. • LNCaP-AR-wt AG refers to the reporter assay using LNCaP cells stably transfected with the Androgen Response Element Firefly Luciferase lentiviral construct and wild-type Androgen Receptor (AR-wt) in Agonist mode. • LNCaP-AR-F876L ANT refers to the reporter assay using LNCaP cells stably transfected with the Androgen Response Element Firefly Luciferase lentiviral construct and F876L mutant Androgen Receptor (AR-F876L) in Antagonist mode. • LNCaP-AR-F876L AG refers to the reporter assay using LNCaP cells stably transfected with the Androgen Response Element Firefly Luciferase lentiviral construct and F876L mutant Androgen Receptor (AR-F876L) in Agonist mode.

[2] = target: T1, F876L mutant Androgen Receptor (AR-F876L); assay: AR reporter assay, LNCaP-AR-F876L AG (agonist mode); type: cell-based; conditions: for Emax: read-out: LNCaP-AR-F876L AG MAX % Stim
Description: as §1, §2
((Sample RLU−Ave Low Control RLU[DMSO/Buffer])/(Ave High Control RLU [1 μM R-1881]—Ave Low Control RLU[DMSO/Buffer]))*100.
as §3, §4

## CC1(C)C(=O)N(c2ccc(C#N)c(C(F)(F)F)c2)C(=S)N1c1ccc(OC2CCNCC2)cc1 [Compound 1, 4-(4,4-Dimethyl-5-oxo-3-(4-(piperidin-4-yloxy)phenyl)-2-thioxoimidazolidin-1-yl)-2-(trifluoromethyl)benzonitrile]
[1]
  IC50: 41.7 nM
  Emax: 102%
[2]
  EC50: > 15100 nM
  Emax: -0.1%

## CN1CCC(Oc2ccc(N3C(=S)N(c4ccc(C#N)c(C(F)(F)F)c4)C(=O)C3(C)C)cc2)CC1 [Compound 2, 4-(4,4-Dimethyl-3-(4-((1-methylpiperidin-4-yl)oxy)phenyl)-5-oxo-2-thioxoimidazolidin-1-yl)-2-(trifluoromethyl)benzonitrile hydrochloride]
[1]
  IC50: 69.2 nM
  Emax: 101%
[2]
  EC50: > 15100 nM
  Emax: 0.1%

## CC1(C)C(=O)N(c2ccc(C#N)c(C(F)(F)F)c2)C(=S)N1c1ccc(OC2CCNCC2)nc1 [Compound 3, 4-(4,4-Dimethyl-5-oxo-3-(6-(piperidin-4-yloxy)pyridin-3-yl)-2-thioxoimidazolidin-1-yl)-2-(trifluoromethyl)benzonitrile hydrochloride]
[1]
  IC50: 40.7 nM
  Emax: 102%
[2]
  EC50: > 15100 nM
  Emax: 0.3%

## CN1CCC(Oc2ccc(N3C(=S)N(c4ccc(C#N)c(C(F)(F)F)c4)C(=O)C3(C)C)cn2)CC1 [Compound 4, 4-(4,4-Dimethyl-3-(6-((1-methylpiperidin-4-yl)oxy)pyridin-3-yl)-5-oxo-2-thioxoimidazolidin-1-yl)-2-(trifluoromethyl)benzonitrile hydrochloride]
[1]
  IC50: 83.2 nM
  Emax: 102%
[2]
  EC50: > 15100 nM
  Emax: 0.1%

## CC1(C)C(=O)N(c2ccc(C#N)c(C(F)(F)F)c2)C(=S)N1c1cnc(OC2CCNCC2)nc1 [Compound 5, 4-(4,4-Dimethyl-5-oxo-3-(2-(piperidin-4-yloxy)pyrimidin-5-yl)-2-thioxoimidazolidin-1-yl)-2-(trifluoromethyl)benzonitrile]
[1]
  IC50: 229 nM
  Emax: 101%
[2]
  EC50: > 15100 nM
  Emax: 0%

## CN1CCC(Oc2ncc(N3C(=S)N(c4ccc(C#N)c(C(F)(F)F)c4)C(=O)C3(C)C)cn2)CC1 [Compound 6, 4-(4,4-Dimethyl-3-(2-((1-methylpiperidin-4-yl)oxy)pyrimidin-5-yl)-5-oxo-2-thioxoimidazolidin-1-yl)-2-(trifluoromethyl)benzonitrile]
[1]; antagonist mode, 600 pM R-1881 challenge, luciferase reporter, -Log10(IC50 in Molar), read-out: LNCaP-AR-F876L ANT pIC50 (converted)
  IC50: 135 nM
[1]
  Emax: 101%
[2]
  EC50: > 15100 nM
  Emax: -0.1%

## CC1(C)C(=O)N(c2ccc(C#N)c(Cl)c2)C(=S)N1c1ccc(OC2CCNCC2)cc1 [Compound 7, 2-Chloro-4-(4,4-dimethyl-5-oxo-3-(4-(piperidin-4-yloxy)phenyl)-2-thioxoimidazolidin-1-yl)benzonitrile hydrochloride]
[1]
  IC50: 38 nM
  Emax: 101%
[2]
  EC50: > 15100 nM
  Emax: -0.1%

## CN1CCC(Oc2ccc(N3C(=S)N(c4ccc(C#N)c(Cl)c4)C(=O)C3(C)C)cc2)CC1 [Compound 8, 2-Chloro-4-(4,4-dimethyl-3-(4-((1-methylpiperidin-4-yl)oxy)phenyl)-5-oxo-2-thioxoimidazolidin-1-yl)benzonitrile hydrochloride]
[1]
  IC50: 58.9 nM
  Emax: 101%
[2]
  EC50: > 15100 nM
  Emax: 0.1%

## CC1(C)C(=O)N(c2ccc(C#N)c(Cl)c2)C(=S)N1c1ccc(OC2CCNCC2)nc1 [Compound 9, 2-Chloro-4-(4,4-dimethyl-5-oxo-3-(6-(piperidin-4-yloxy)pyridin-3-yl)-2-thioxoimidazolidin-1-yl)benzonitrile hydrochloride]
[1]
  IC50: 38.9 nM
  Emax: 100%
[2]
  EC50: > 15100 nM
  Emax: 0%

## CN1CCC(Oc2ccc(N3C(=S)N(c4ccc(C#N)c(Cl)c4)C(=O)C3(C)C)cn2)CC1 [Compound 10, 2-Chloro-4-(4,4-dimethyl-3-(6-((1-methylpiperidin-4-yl)oxy)pyridin-3-yl)-5-oxo-2-thioxoimidazolidin-1-yl)benzonitrile hydrochloride]
[1]
  IC50: 85.1 nM
  Emax: 101%
[2]
  EC50: > 15100 nM
  Emax: 0.1%

## N#Cc1ccc(N2C(=O)C3(CCC3)N(c3ccc(OC4CCNCC4)cc3)C2=S)cc1C(F)(F)F [Compound 11, 4-(8-Oxo-5-(4-(piperidin-4-yloxy)phenyl)-6-thioxo-5,7-diazaspiro[3.4]octan-7-yl)-2-(trifluoromethyl)benzonitrile]
[1]
  IC50: 107 nM
  Emax: 102%
[2]
  EC50: > 15100 nM
  Emax: 0.1%

## CN1CCC(Oc2ccc(N3C(=S)N(c4ccc(C#N)c(C(F)(F)F)c4)C(=O)C34CCC4)cc2)CC1 [Compound 12, 4-(5-(4-((1-Methylpiperidin-4-yl)oxy)phenyl)-8-oxo-6-thioxo-5,7-diazaspiro[3.4]octan-7-yl)-2-(trifluoromethyl)benzonitrile]
[1]
  IC50: 166 nM
  Emax: 101%
[2]
  EC50: > 15100 nM
  Emax: 0.2%

## N#Cc1ccc(N2C(=O)C3(CCC3)N(c3ccc(OC4CCNCC4)nc3)C2=S)cc1C(F)(F)F [Compound 13, 4-(8-Oxo-5-(6-(piperidin-4-yloxy)pyridin-3-yl)-6-thioxo-5,7-diazaspiro[3.4]octan-7-yl)-2-(trifluoromethyl)benzonitrile hydrochloride]
[1]
  IC50: 57.5 nM
  Emax: 102%
[2]
  EC50: > 15100 nM
  Emax: 0%

## CN1CCC(Oc2ccc(N3C(=S)N(c4ccc(C#N)c(C(F)(F)F)c4)C(=O)C34CCC4)cn2)CC1 [Compound 14, 4-(5-(6-((1-Methylpiperidin-4-yl)oxy)pyridin-3-yl)-8-oxo-6-thioxo-5,7-diazaspiro[3.4]octan-7-yl)-2-(trifluoromethyl)benzonitrile]
[1]
  IC50: 57.5 nM
  Emax: 101%
[2]
  EC50: > 15100 nM
  Emax: 0.1%
